For 2 compounds, IC50 results are on record in article PMC2693121 (Molecular cell, 2009).

Assay [1] has as its target Cdk9 (Schizosaccharomyces pombe, UniProt Q96WV9, T120G). As to the kind of experiment: radiometric kinase assay with [γ-32P]-ATP on GST-Spt5. The format is biochemical.
Assay [2] addresses Mcs6 (Schizosaccharomyces pombe, UniProt Q12126, L87G). Kind of assay: radiometric kinase assay with [γ-32P]-ATP on GST-Rpb1-CTD. The format is biochemical.

SMILES strings stand for the structures.

One may read the IC50 as the concentration that inhibits the measured activity by half. Low readings indicate greater potency in that assay, high ones weaker potency in that assay.

Sequence of Cdk9 (O74880 whole entry): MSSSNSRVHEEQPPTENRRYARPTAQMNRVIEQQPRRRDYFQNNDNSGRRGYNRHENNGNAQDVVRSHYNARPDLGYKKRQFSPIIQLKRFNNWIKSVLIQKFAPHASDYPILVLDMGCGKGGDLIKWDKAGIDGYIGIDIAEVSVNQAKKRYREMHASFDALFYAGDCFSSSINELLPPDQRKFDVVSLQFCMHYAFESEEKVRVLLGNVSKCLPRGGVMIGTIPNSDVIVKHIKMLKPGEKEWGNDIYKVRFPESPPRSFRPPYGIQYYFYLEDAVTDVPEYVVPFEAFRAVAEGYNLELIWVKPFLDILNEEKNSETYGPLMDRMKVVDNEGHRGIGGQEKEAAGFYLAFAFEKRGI
Sequence of Cdk9 (O74627 whole entry, further chain): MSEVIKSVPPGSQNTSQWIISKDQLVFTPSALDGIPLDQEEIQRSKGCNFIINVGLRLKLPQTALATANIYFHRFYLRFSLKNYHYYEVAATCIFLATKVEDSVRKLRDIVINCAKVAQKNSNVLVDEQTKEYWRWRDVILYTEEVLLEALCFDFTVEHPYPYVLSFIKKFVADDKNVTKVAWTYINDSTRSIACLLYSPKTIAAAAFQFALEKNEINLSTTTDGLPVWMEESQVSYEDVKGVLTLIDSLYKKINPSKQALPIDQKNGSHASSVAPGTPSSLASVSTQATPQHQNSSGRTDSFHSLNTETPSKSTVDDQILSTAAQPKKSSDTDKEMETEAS
Sequence of Cdk9 (Q96WV9 whole entry, stated change not applied): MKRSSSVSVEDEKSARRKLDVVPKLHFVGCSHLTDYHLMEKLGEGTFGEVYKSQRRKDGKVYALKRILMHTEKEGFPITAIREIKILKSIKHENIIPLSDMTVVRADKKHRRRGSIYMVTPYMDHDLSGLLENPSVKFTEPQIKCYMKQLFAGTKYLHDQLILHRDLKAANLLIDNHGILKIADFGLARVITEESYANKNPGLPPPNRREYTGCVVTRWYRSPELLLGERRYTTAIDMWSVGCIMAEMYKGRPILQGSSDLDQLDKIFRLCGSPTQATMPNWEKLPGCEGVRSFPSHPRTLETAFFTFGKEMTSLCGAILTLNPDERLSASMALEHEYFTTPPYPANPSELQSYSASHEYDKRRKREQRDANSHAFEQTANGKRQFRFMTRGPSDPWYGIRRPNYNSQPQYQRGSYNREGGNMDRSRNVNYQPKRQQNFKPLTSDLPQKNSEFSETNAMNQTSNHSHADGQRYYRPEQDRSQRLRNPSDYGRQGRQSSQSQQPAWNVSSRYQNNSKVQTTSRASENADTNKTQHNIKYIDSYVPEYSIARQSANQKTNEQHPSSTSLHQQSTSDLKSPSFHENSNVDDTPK
Sequence of Mcs6 (P36613 whole entry): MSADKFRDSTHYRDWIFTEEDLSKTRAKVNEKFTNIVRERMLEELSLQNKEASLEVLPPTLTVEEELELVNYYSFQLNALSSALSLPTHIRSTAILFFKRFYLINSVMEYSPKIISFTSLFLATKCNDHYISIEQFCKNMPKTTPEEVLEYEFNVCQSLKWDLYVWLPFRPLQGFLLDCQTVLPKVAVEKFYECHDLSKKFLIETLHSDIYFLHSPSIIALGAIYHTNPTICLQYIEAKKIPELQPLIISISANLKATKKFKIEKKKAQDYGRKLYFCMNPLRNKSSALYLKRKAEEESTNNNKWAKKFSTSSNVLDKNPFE
Sequence of Mcs6 (Q12126 whole entry, stated change not applied): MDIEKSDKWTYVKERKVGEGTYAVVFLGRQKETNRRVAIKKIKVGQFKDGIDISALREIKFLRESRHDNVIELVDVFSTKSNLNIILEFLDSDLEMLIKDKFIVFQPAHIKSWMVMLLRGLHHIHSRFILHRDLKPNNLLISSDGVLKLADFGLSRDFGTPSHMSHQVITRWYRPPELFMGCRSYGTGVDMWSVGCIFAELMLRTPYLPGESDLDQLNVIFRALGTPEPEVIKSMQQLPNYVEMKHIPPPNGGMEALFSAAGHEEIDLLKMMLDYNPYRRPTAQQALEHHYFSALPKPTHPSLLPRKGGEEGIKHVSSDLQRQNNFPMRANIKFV
Sequence of Mcs6 (O94684 whole entry, further chain): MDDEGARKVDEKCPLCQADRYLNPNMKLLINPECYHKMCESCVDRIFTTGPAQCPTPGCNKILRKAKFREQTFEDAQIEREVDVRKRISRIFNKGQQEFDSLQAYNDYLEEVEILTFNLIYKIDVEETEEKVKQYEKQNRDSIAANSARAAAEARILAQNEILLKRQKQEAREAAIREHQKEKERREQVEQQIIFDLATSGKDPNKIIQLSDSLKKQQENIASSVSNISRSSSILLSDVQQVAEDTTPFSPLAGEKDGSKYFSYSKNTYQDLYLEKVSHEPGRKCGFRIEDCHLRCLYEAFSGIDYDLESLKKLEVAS

As for `CC(C)(C)n1nc(Cc2cccc3ccccc23)c2c(N)ncnc21` [1-NM-PP1], the IC50 in assay [1] was roughly 500 nM.

In the case of `Cc1cccc(Cc2nn(C(C)(C)C)c3ncnc(N)c23)c1` [3-MB-PP1], the IC50 in assay [1] was roughly 25 nM; in assay [2], roughly 125 nM.
